Assay results: US10881703B2, “Composition for use in the treatment of intestinal alterations” (priority 2016, dated 2021)

Test system: THP-1 cells and intestinal epithelial cells (CacoGoblet)
Assay: Monocyte-epithelial cell adhesion assay (THP-1 cells on CacoGoblet)
Assay type: cell-based, human
Conditions: inflamed mucosa (IL1 beta 10 ng/ml overnight), 24 hours treatment
Experimental: The CacoGoblet cells were pre-treated with 10 ng/ml of IL1 beta overnight. […] A parallel treatment was carried out with the reference molecule etacortilen (Dexamethasone Sodium Phosphate) at 0.15% in order to study the overcoming of the inflammatory state of the mucosa. […] Once the non-adherent cells had been removed, the residual surface fluorescence of the THP-1 cells was evaluated under a microscope. The anti-inflammatory activity of the various compounds at the intestinal level was assessed in a static assay using the reduction in the cellular adhesion of THP-1 on CacoGoblet as an endpoint parameter. • 2) Ability of Cranberries to Prevent Adhesion of E. Coli to Mucosa The CacoGoblet cells were treated overnight with IL-1beta, the pro-inflammatory cytokine, prior to the adhesion assay in order to create inflamed mucosa. The treated monolayers were then treated with the products for 24 hours. The marked THP-1 cells were added on top of the CacoGoblet in each well. The THP-1 cells were marked with the fluorescent dye chloromethylfluorescein diacetate (CMFDA; Invitrogen). After incubation, the monolayer was gently washed to remove the non-adherent THP-1 cells. The adherent cells marked with the fluorescent dye were viewed under a fluorescence microscope. […]

Compound: C[C@@H]1C[C@H]2[C@@H]3CCC4=CC(=O)C=C[C@]4(C)[C@@]3(F)[C@@H](O)C[C@]2(C)[C@@]1(O)C(=O)COP(=O)(O)O [etacortilen, Dexamethasone Sodium Phosphate]
- adhesion of THP-1 cells: significant decrease in the adhesion of THP-1 cells
